Source: paper PMC10583827 (RSC Medicinal Chemistry, 2023)

Columns and labels:
[1] = system: L. major strain IR173 promastigotes; assay: Leishmania antipromastigote assay; format: cell-based; conditions: read-out: Anti-promastigote activity IC50
Vero cells = assay: General/basal cytotoxicity, resazurin assay; conditions: Vero cells, 48 h, mean ± SD
[2] = system: T. cruzi strain CL trypomastigotes; assay: T. cruzi antitrypomastigote assay; format: cell-based, Trypanosoma cruzi; conditions: >10 = did not qualify at 10 μM screen

Compound	IC50 [1]	General cytotoxicity Vero IC50 (Vero cells)	Anti-trypomastigote activity IC50 [2]
C[C@@H]1[C@H](O)[C@@H](C)/C=C/C=C/C=C/C=C/C=C/C=C/C=C/[C@H](O[C@@H]2O[C@H](C)[C@@H](O)[C@H](N)[C@@H]2O)C[C@@H]2O[C@](O)(C[C@@H](O)C[C@@H](O)[C@H](O)CC[C@@H](O)C[C@@H](O)CC(=O)O[C@H]1C)C[C@H](O)[C@H]2C(=O)O [AmB, amphotericin B]	30 ± 10 nM		
O=[N+]([O-])c1ccc(/C=N/N=C/c2ccco2)cc1 [compound 12, (E)-1-(Furan-2-ylmethylene)-2-[(E)-4-nitrobenzylidene]hydrazine]		complete loss	complete loss
